Data on 42 compounds can be found in the RepoRT retention time repository (doi:10.1039/c6ra10883k).

A short description of the series: Phenomenex Kinetex XB-C18, 100 × 2.1 mm, 1.7 µm, 35 °C, 0.3 mL/min, estimated dead time 0.73 min; A: water + 0.1% formic acid; B: acetonitrile + 0.1% formic acid; gradient (min/%B) 0/5 1/5 2/10 9/33 15/46 16/70 21/90 22/90. The following applies: stereoisomer not certain.
As to `CC(C)=CCCC(C)(OC1OC(COC2OC(CO)C(O)C(OC3OCC(O)C(O)C3O)C2O)C(O)C(O)C1O)C1CCC2(C)C1C(O)CC1C3(C)CCC(OC4OC(CO)C(O)C(O)C4OC4OC(CO)C(O)C(O)C4O)C(C)(C)C3CCC12C` (configuration not stated), the LC retention time is 10.5 min.
In the case of `CC(C)=CCCC(C)(OC1OC(COC2OC(CO)C(O)C2O)C(O)C(O)C1O)C1CCC2(C)C1C(O)CC1C3(C)CCC(OC4OC(CO)C(O)C(O)C4OC4OC(CO)C(O)C(O)C4O)C(C)(C)C3CCC12C` (configuration not stated), the LC retention time was 11.2 min.
With `CC1(C)CCC2(C(=O)OC3OC(CO)C(O)C(O)C3O)CCC3(C)C(=CCC4C5(C)CCC(OC6OC(C(=O)O)C(O)C(O)C6OC6OC(CO)C(O)C(O)C6O)C(C)(C)C5CCC43C)C2C1` (configuration not stated) the figure was 11.3 min; with `CC(C)=CCCC(C)(OC1OC(COC2OC(CO)C(O)C(O)C2O)C(O)C(O)C1O)C1CCC2(C)C1C(O)CC1C3(C)CCC(O)C(C)(C)C3C(OC3OC(CO)C(O)C(O)C3O)CC12C` (configuration not stated), 7.09 min.
With `CC(C)=CCCC(C)(OC1OC(CO)C(O)C(O)C1O)C1CC(C)C2(C)C3CC(OC4OC(CO)C(O)C(O)C4OC4OC(CO)C(O)C(O)C4O)C4C(C)(C)C(O)CCC4(C)C3CC(O)C12` (configuration not stated), the LC retention time was 7.5 min.
In the case of `C=C(CCC=C(C)C)C1CCC2(C)C1C(O)CC1C3(C)CCC(O)C(C)(C)C3C(OC3OC(CO)C(O)C(O)C3O)CC12C` (configuration not stated), the LC retention time was 14.9 min.
For the compound `CC(C)=CCCC(C)(OC1OC(CO)C(O)C(O)C1O)C1CCC2(C)C1C(O)CC1C3(C)CCC(O)C(C)(C)C3C(OC3OC(CO)C(O)C(O)C3OC3OCC(O)C(O)C3O)CC12C` (configuration not stated), the LC retention time is 7.68 min.
Take `CC(C)=CCCC(C)(OC1OC(CO)C(O)C(O)C1O)C1CCC2(C)C1C(O)CC1C3(C)CCC(OC4OC(CO)C(O)C(O)C4OC4OC(CO)C(O)C(O)C4O)C(C)(C)C3CCC12C` (configuration not stated): the LC retention time is 12.4 min.
Turning to `CC(C)=CCCC(C)(OC1OC(COC2OC(CO)C(O)C(O)C2O)C(O)C(O)C1O)C1CCC2(C)C1C(O)CC1C3(C)CCC(OC4OC(CO)C(O)C(O)C4OC4OC(COC(=O)CC(=O)O)C(O)C(O)C4O)C(C)(C)C3CCC12C` (configuration not stated), the LC retention time was 11.1 min.
For `O=C(C=Cc1ccc(O)cc1)C1=C(O)C2=C(OC3(C2)OCC(O)C(O)C3O)C(O)(C2OC(CO)C(O)C(O)C2O)C1=O` (configuration not stated), the LC retention time was 6.76 min.
For the compound `C=C(CCC=C(C)C)C1CCC2(C)C1C(O)CC1C3(C)CCC(O)C(C)(C)C3C(OC3OC(CO)C(O)C(O)C3OC3OCC(O)C(O)C3O)CC12C` (configuration not stated), the LC retention time was 14 min.
As to `O=C(C=Cc1ccc(O)cc1)C1=C(O)C2=C(OC(C(O)C(O)C(O)CO)C2C2=C(O)C(=C(O)C=Cc3ccc(O)cc3)C(=O)C(O)(C3OC(CO)C(O)C(O)C3O)C2=O)C(O)(C2OC(CO)C(O)C(O)C2O)C1=O` (configuration not stated), the LC retention time was 6.67 min.
As to `O=c1cc(-c2ccc(O)c(O)c2)oc2cc(O)cc(O)c12`, the LC retention time was 8.91 min.
Turning to `CC(C)=CCCC(C)(O)C1CCC2(C)C1C(O)CC1C3(C)CCC(O)C(C)(C)C3C(O)CC12C` (configuration not stated), the LC retention time was 16.6 min.
For the compound `CC(C)=CCCC(C)(OC1OC(CO)C(O)C(O)C1O)C1CCC2(C)C1C(O)CC1C3(C)CCC(OC4OC(COC5OC(CO)C(O)C(O)C5O)C(O)C(O)C4O)C(C)(C)C3CCC12C` (configuration not stated), the LC retention time was 13.2 min.
Take `CC(C)=CCCC(C)(OC1OC(CO)C(O)C(O)C1O)C1CCC2(C)C1C(O)CC1C3(C)CCC(OC4OC(CO)C(O)C(O)C4O)C(C)(C)C3CCC12C` (configuration not stated): the LC retention time was 15.4 min.
In the case of `CC(C)=CCCC(C)(OC1OC(CO)C(O)C(O)C1O)C1CCC2(C)C1C(O)CC1C3(C)CCC(O)C(C)(C)C3C(OC3OC(COC4OC(CO)C(O)C(O)C4O)C(O)C(O)C3O)CC12C` (configuration not stated), the LC retention time was 7.28 min.
On to `CC(C)=CCCC(C)(OC1OC(CO)C(O)C(O)C1O)C1CCC2(C)C1C(O)CC1C3(C)CCC(OC4OC(CO)C(O)C(O)C4OC4OC(CO)C(O)C(O)C4O)C(C)(C)C3C(O)CC12C` (configuration not stated), for which the LC retention time is 9.5 min.
As for `CC(C)=CCCC(C)(OC1OC(COC2OC(CO)C(O)C(OC3OCC(O)C(O)C3O)C2O)C(O)C(O)C1O)C1CCC2(C)C1C(O)CC1C3(C)CCC(OC4OC(CO)C(O)C(O)C4OC4OC(CO)C(O)C(O)C4OC4OCC(O)C(O)C4O)C(C)(C)C3CCC12C` (configuration not stated), the LC retention time is 9.85 min.
In the case of `O=C1C(=C(O)C=Cc2ccc(O)cc2)C(O)=C(C2OC(CO)C(O)C(O)C2O)C(=O)C1(O)C1OC(CO)C(O)C(O)C1O` (configuration not stated), the LC retention time is 4.17 min.
As for `O=C(O)CC(C1=C(O)C(=C(O)C=Cc2ccc(O)cc2)C(=O)C(O)(C2OC(CO)C(O)C(O)C2O)C1=O)c1ccc(O)cc1` (configuration not stated), the LC retention time is 7.95 min.
`CC1OC(OCC2OC(Oc3c(-c4ccc(O)cc4)oc4cc(O)cc(O)c4c3=O)C(O)C(O)C2O)C(O)C(O)C1O` (configuration not stated): the LC retention time was 6.6 min.
With `CC(C)=CCCC(C)(OC1OC(COC2OC(CO)C(O)C(O)C2O)C(O)C(O)C1O)C1CCC2(C)C1C(O)CC1C3(C)CCC(OC4OC(CO)C(O)C(O)C4OC4OC(CO)C(O)C(O)C4O)C(C)(C)C3CCC12C` (configuration not stated), the LC retention time is 10.9 min.
Consider `CCCC=C1OC(=O)C2=C1CCC=C2`, for which the LC retention time is 16.4 min.
With `CC(C)=CCCC(C)(OC1OC(COC2OC(COC3OCC(O)C(O)C3O)C(O)C(O)C2O)C(O)C(O)C1O)C1CCC2(C)C1C(O)CC1C3(C)CCC(OC4OC(CO)C(O)C(O)C4OC4OC(CO)C(O)C(O)C4O)C(C)(C)C3CCC12C` (configuration not stated) the figure was 10.2 min.
On to `CC(C)=CCCC(C)(OC1OC(CO)C(O)C(O)C1O)C1CCC2(C)C1C(O)CC1C3(C)CCC(OC4OC(CO)C(O)C(O)C4OC4OC(COC(=O)CC(=O)O)C(O)C(O)C4O)C(C)(C)C3CCC12C` (configuration not stated), for which the LC retention time is 12.7 min.
Take `CC(C)=CCCC(C)(OC1OC(CO)C(O)C(O)C1O)C1CCC2(C)C1C(O)CC1C3(C)CCC(O)C(C)(C)C3CCC12C` (configuration not stated): the LC retention time was 17.3 min.
Consider `CC(C)=CCCC(C)(OC1OC(CO)C(O)C(O)C1O)C1CCC2(C)C1C(O)CC1C3(C)CCC(O)C(C)(C)C3C(OC3OC(CO)C(O)C(O)C3O)CC12C` (configuration not stated), for which the LC retention time was 8.07 min.
To `O=c1cc(-c2ccc(O)c(O)c2)oc2cc(OC3OC(CO)C(O)C(O)C3O)cc(O)c12` (configuration not stated) belongs 6.28 min; to `CC(C)=CCCC(C)(OC1OC(COC2OCC(O)C(O)C2O)C(O)C(O)C1O)C1CCC2(C)C1C(O)CC1C3(C)CCC(OC4OC(CO)C(O)C(O)C4OC4OC(CO)C(O)C(O)C4O)C(C)(C)C3CCC12C` (configuration not stated), 11.6 min.
Consider `COc1cc(C=CC(=O)O)ccc1O`, for which the LC retention time is 5.97 min.
For `COc1cc(C=CCO)cc(OC)c1OC1OC(CO)C(O)C(O)C1O` (configuration not stated), the LC retention time was 3.9 min.
For `O=C(C=Cc1ccc(O)c(O)c1)OC1CC(O)(C(=O)O)CC(OC(=O)C=Cc2ccc(O)c(O)c2)C1O` (configuration not stated), the LC retention time was 6.92 min.
As for `CCCC=C1OC(=O)C2=C1CCC1C3C=C4C(=O)OC(=CCCC)C4(CC3)C21` (configuration not stated), the LC retention time was 18.2 min.
For the compound `O=c1c(O)c(-c2ccc(O)c(O)c2)oc2cc(O)cc(O)c12`, the LC retention time was 8.93 min.
With `CC(C)=CCCC(C)(O)C1CCC2(C)C1C(O)CC1C3(C)CCC(O)C(C)(C)C3C(OC3OC(CO)C(O)C(O)C3OC3OC(C)C(O)C(O)C3O)CC12C` (configuration not stated) the figure was 10.9 min; with `O=c1c(O)c(-c2ccc(O)c(O)c2)oc2cc(OC3OC(CO)C(O)C(O)C3O)cc(O)c12` (configuration not stated), 6.12 min; with `CC(C)=CCCC(C)(O)C1CCC2(C)C1C(O)CC1C3(C)CCC(O)C(C)(C)C3C(OC3OC(CO)C(O)C(O)C3OC3OC(CO)C(O)C(O)C3O)CC12C` (configuration not stated), 10.1 min.
With `CC1OC(OCC2OC(Oc3c(-c4ccc(O)c(O)c4)oc4cc(O)cc(O)c4c3=O)C(O)C(O)C2O)C(O)C(O)C1O` (configuration not stated) the figure was 5.99 min; with `CC(C)=CCCC(C)(OC1OC(CO)C(O)C(O)C1O)C1CCC2(C)C1C(O)CC1C3(C)CCC(OC4OC(CO)C(O)C(O)C4OC4OC(CO)C(O)C(O)C4O)C(C)(C)C3=CC(O)C12C` (configuration not stated), 8.82 min; with `O=c1c(O)c(-c2ccc(O)cc2)oc2cc(O)cc(O)c12`, 10.3 min.
Take `O=c1c(OC2OC(CO)C(O)C(O)C2O)c(-c2ccc(O)cc2)oc2cc(O)cc(O)c12` (configuration not stated): the LC retention time was 6.86 min.
